The values below come from patent US10758534B2 (Vertex Pharmaceuticals Incorporated, priority 2014, dated 2020).

The target in the test is T1, F508del (Homo sapiens, UniProt P13569, DEL508-508).
T1 construct: expressed in transfected cells
T1 sequence (P13569 with tags, fused parts or gaps DEL508-508): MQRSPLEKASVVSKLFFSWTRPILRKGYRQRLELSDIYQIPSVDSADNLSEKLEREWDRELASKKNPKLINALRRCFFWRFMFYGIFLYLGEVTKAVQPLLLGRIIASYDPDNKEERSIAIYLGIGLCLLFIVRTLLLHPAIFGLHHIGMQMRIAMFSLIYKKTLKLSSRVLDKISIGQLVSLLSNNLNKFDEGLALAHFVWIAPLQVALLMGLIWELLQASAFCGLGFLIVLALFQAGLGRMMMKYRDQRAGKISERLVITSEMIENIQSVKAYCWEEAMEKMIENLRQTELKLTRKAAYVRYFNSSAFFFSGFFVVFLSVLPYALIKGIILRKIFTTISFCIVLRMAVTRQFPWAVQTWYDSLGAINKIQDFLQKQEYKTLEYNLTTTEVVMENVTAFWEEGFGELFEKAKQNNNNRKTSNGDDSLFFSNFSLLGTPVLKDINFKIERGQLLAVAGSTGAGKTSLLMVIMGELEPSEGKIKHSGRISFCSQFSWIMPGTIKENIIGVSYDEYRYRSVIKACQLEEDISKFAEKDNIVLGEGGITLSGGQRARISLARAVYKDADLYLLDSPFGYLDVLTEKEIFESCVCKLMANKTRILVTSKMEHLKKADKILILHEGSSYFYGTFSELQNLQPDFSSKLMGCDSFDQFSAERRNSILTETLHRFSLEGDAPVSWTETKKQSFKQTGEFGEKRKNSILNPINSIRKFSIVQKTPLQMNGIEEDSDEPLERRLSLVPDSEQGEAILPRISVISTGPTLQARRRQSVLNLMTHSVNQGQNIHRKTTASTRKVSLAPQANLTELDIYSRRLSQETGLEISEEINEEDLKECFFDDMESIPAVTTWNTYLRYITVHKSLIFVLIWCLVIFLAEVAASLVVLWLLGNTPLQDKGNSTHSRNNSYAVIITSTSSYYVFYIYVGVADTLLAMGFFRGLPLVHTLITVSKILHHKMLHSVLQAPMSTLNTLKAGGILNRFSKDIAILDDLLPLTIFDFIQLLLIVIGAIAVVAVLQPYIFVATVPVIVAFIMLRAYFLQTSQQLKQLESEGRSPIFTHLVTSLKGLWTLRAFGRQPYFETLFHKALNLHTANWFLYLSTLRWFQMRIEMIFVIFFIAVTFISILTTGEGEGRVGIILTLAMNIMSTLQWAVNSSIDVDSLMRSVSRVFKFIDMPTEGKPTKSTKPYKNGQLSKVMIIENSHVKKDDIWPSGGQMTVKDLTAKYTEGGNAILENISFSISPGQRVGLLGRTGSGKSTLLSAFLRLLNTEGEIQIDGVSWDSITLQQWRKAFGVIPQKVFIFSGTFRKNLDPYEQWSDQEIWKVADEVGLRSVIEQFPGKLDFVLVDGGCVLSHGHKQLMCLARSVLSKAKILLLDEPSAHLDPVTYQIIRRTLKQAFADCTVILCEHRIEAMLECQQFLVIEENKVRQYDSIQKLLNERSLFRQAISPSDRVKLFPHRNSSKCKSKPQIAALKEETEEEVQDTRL
The test can be described thus: Protocol 1: membrane potential optical assay (FLIPR III, voltage sensing dye), identification of potentiator compounds. The format is cell-based. The following applies: Table 3, compounds of Table 1. The procedure, abridged: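 Read-out: change in voltage-sensing dye fluorescence (FLIPR III) as a measure of F508del conductance. Temperature-corrected (27° C, 24 hrs) NIH 3T3 cells expressing F508del are pretreated with potentiators, dye-loaded, then stimulated with forskolin under a chloride ion gradient using chloride-free gluconate bath.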
On to `C[C@@H]1CN(c2nc(C3=CCCN(C(=O)c4cccc(Cl)c4)C3)ccc2C(=O)NS(=O)(=O)c2cccc(N)n2)C(C)(C)C1` [Compound 1984, N-[(6-amino-2-pyridyl)sulfonyl]-6-[1-(3-chlorobenzoyl)-3,6-dihydro-2H-pyridin-5-yl]-2-[(4S)-2,2,4-trimethylpyrrolidin-1-yl]pyridine-3-carboxamide], for which the EC30 result is “++ (“++” means between 3 uM and 10 uM)”.
The same measure for `COc1cccc(COc2cccc(S(=O)(=O)NC(=O)c3cccnc3N3CC(C)CC3(C)C)n2)c1` (stereo not drawn) [Compound 1972, N—[[6-[(3-methoxyphenyl)methoxy]-2-pyridyl]sulfonyl]-2-(2,2,4-trimethylpyrrolidin-1-yl)pyridine-3-carboxamide]: “+++ (“+++” means <3 uM)”; for `Cc1cc(-c2ccc(C(=O)NS(=O)(=O)c3cccc(N)n3)c(N3C[C@@H](C)CC3(C)C)n2)ccc1F` [Compound 1930, N-[(6-amino-2-pyridyl)sulfonyl]-6-(4-fluoro-3-methyl-phenyl)-2-[(4S)-2,2,4-trimethylpyrrolidin-1-yl]pyridine-3-carboxamide]: “+++ (“+++” means <3 uM)”; for `Cc1cc(C)cc(-c2ccc(C(=O)NS(=O)(=O)c3cccc(N)n3)c(N3C[C@@H](C)CC3(C)C)n2)c1` [Compound 1771, N-[(6-amino-2-pyridyl)sulfonyl]-6-(3,5-dimethylphenyl)-2-[(4S)-2,2,4-trimethylpyrrolidin-1-yl]pyridine-3-carboxamide]: “+++ (“+++” means <3 uM)”.
Regarding `CC(C)Oc1ccc(-c2ccc(C(=O)NS(=O)(=O)c3cccc(N)n3)c(N3CC4CCCC4C3)n2)cn1` (stereo not drawn) [Compound 1107, 2-(3,3a,4,5,6,6a-hexahydro-1H-cyclopenta[c]pyrrol-2-yl)-N-[(6-amino-2-pyridyl)sulfonyl]-6-(6-isopropoxy-3-pyridyl)pyridine-3-carboxamide], the EC30 entry was “+++ (“+++” means <3 uM)”.
In the case of `CC(C)COc1cc(F)cc(-c2ccc(C(=O)NS(=O)(=O)N3CC4C[C@H]3CO4)c(N3C[C@@H](C)CC3(C)C)n2)c1` [Compound 1789, 6-(3-fluoro-5-isobutoxy-phenyl)-N—[[(4S)-2-oxa-5-azabicyclo[2.2.1]heptan-5-yl]sulfonyl]-2-[(4S)-2,2,4-trimethylpyrrolidin-1-yl]pyridine-3-carboxamide], the EC30 entry is “+++ (“+++” means <3 uM)”.
For `CC(C)COc1cc(F)cc(-c2ccc(C(=O)NS(=O)(=O)c3ccccc3O)c(N3C[C@@H](C)CC3(C)C)n2)c1` [Compound 1836, 6-(3-fluoro-5-isobutoxy-phenyl)-N-(2-hydroxyphenyl)sulfonyl-2-[(4S)-2,2,4-trimethylpyrrolidin-1-yl]pyridine-3-carboxamide], the EC30 result is on record as “+++ (“+++” means <3 uM)”.
For the compound `CCNc1ccc(C(=O)NS(=O)(=O)c2cccc(N)n2)c(Oc2c(C)cc(C)cc2C)n1` [Compound 1128, N-[(6-amino-2-pyridyl)sulfonyl]-6-(ethylamino)-2-(2,4,6-trimethylphenoxy)pyridine-3-carboxamide], the EC30 result is “++ (“++” means between 3 uM and 10 uM)”.
The same measure for `CC(C)COc1cccc(-c2ccc(C(=O)NS(=O)(=O)c3cccc(N)n3)c(N3[C@H](C)CC[C@@H]3C)n2)c1` [Compound 957, N-[(6-amino-2-pyridyl)sulfonyl]-2-[(2S,5R)-2,5-dimethylpyrrolidin-1-yl]-6-(3-isobutoxyphenyl)pyridine-3-carboxamide]: “+++ (“+++” means <3 uM)”.
As for `CC(C)COc1cc(F)cc(-c2ccc(C(=O)NS(=O)(=O)c3cccc(N)n3)c(N3C[C@@H]4CC[C@H]3C4)n2)c1` [Compound 1180, N-[(6-amino-2-pyridyl)sulfonyl]-2-[(1R,4S)-3-azabicyclo[2.2.1]heptan-3-yl]-6-(3-fluoro-5-isobutoxy-phenyl)pyridine-3-carboxamide], the entry is “+++ (“+++” means <3 uM)”.
As for `CC(C)COc1cc(F)cc(-c2ccc(C(=O)NS(=O)(=O)c3ccccn3)c(N3C[C@@H](C)CC3(C)C)n2)c1` [Compound 1832, 6-(3-fluoro-5-isobutoxy-phenyl)-N-(2-pyridylsulfonyl)-2-[(4S)-2,2,4-trimethylpyrrolidin-1-yl]pyridine-3-carboxamide], the entry is “+++ (“+++” means <3 uM)”; as for `CNc1ccc(C(=O)NS(=O)(=O)c2cccc(N)n2)c(Oc2c(C)cc(C)cc2C)n1` [Compound 983, N-[(6-amino-2-pyridyl)sulfonyl]-6-(methylamino)-2-(2,4,6-trimethylphenoxy)pyridine-3-carboxamide], “++ (“++” means between 3 uM and 10 uM)”.
With `Cc1cc(C)c(Oc2ncc(-c3ccccc3C(C)(C)C)cc2C(=O)NS(=O)(=O)c2cccc(N)n2)c(C)c1` [Compound 868, N-[(6-amino-2-pyridyl)sulfonyl]-5-(2-tert-butylphenyl)-2-(2,4,6-trimethylphenoxy)pyridine-3-carboxamide], the EC30 entry is given as “+++ (“+++” means <3 uM)”.
As for `Cc1cc(C)c(Oc2nc(-c3cc(C)nn3C)ccc2C(=O)NS(=O)(=O)c2cccc(N)n2)c(C)c1` [Compound 938, N-[(6-amino-2-pyridyl)sulfonyl]-6-(2,5-dimethylpyrazol-3-yl)-2-(2,4,6-trimethylphenoxy)pyridine-3-carboxamide], the EC30 entry was “++ (“++” means between 3 uM and 10 uM)”.
The same measure for `Cc1c(F)cccc1-c1ccc(C(=O)NS(=O)(=O)c2cccnc2N)c(N2C[C@@H](C)CC2(C)C)n1` [Compound 1944, N-[(2-amino-3-pyridyl)sulfonyl]-6-(3-fluoro-2-methyl-phenyl)-2-[(4S)-2,2,4-trimethylpyrrolidin-1-yl]pyridine-3-carboxamide]: “+++ (“+++” means <3 uM)”.
As for `CC(C)c1ccc(C(=O)NS(=O)(=O)c2cccc(N)n2)c(N2C[C@@H](C)CC2(C)C)n1` [Compound 1505, N-[(6-amino-2-pyridyl)sulfonyl]-6-isopropyl-2-[(4S)-2,2,4-trimethylpyrrolidin-1-yl]pyridine-3-carboxamide], the entry is “+++ (“+++” means <3 uM)”; as for `CC(C)Oc1ccc(-c2ccc(C(=O)NS(=O)(=O)c3cccc(N)n3)c(N3CCCC34CCC4)n2)cn1` [Compound 987, N-[(6-amino-2-pyridyl)sulfonyl]-2-(8-azaspiro[3.4]octan-8-yl)-6-(6-isopropoxy-3-pyridyl)pyridine-3-carboxamide], “+++ (“+++” means <3 uM)”; as for `CC(C)Oc1ccc(-c2ccc(C(=O)NS(=O)(=O)c3cccc(N)n3)c(N3CC[C@H](C)C3)n2)cn1` [Compound 1081, N-[(6-amino-2-pyridyl)sulfonyl]-6-(6-isopropoxy-3-pyridyl)-2-[(3S)-3-methylpyrrolidin-1-yl]pyridine-3-carboxamide], “++ (“++” means between 3 uM and 10 uM)”.
As for `CC(C)COc1cc(F)cc(-c2ccc(C(=O)NS(=O)(=O)c3cccc(N)n3)c(OCCc3cccnc3)n2)c1` [Compound 1654, N-[(6-amino-2-pyridyl)sulfonyl]-6-(3-fluoro-5-isobutoxy-phenyl)-2-[2-(3-pyridyl)ethoxy]pyridine-3-carboxamide], the entry is “+++ (“+++” means <3 uM)”; as for `CC1CN(c2ncc(-c3cccc(C(F)(F)F)c3)cc2C(=O)NS(=O)(=O)c2cccc(N)n2)C(C)(C)C1` (stereo not drawn) [Compound 1950, N-[(6-amino-2-pyridyl)sulfonyl]-5-[3-(trifluoromethyl)phenyl]-2-(2,2,4-trimethylpyrrolidin-1-yl)pyridine-3-carboxamide], “+++ (“+++” means <3 uM)”; as for `CC(C)Oc1ccccc1-c1ccc(C(=O)NS(=O)(=O)N2CC[C@H](N)C2)c(N2C[C@@H](C)CC2(C)C)n1` [Compound 1897, N-[(3S)-3-aminopyrrolidin-1-yl]sulfonyl-6-(2-isopropoxyphenyl)-2-[(4S)-2,2,4-trimethylpyrrolidin-1-yl]pyridine-3-carboxamide], “+++ (“+++” means <3 uM)”.
Turning to `CC1(C)CCCc2cc(C(=O)NS(=O)(=O)c3ccc(N)cc3)c(-c3ccccc3)nc21` [Compound 1190, N-(4-aminophenyl)sulfonyl-8,8-dimethyl-2-phenyl-6,7-dihydro-5H-quinoline-3-carboxamide], the EC30 result is given as “+++ (“+++” means <3 uM)”.
As for `CC(C)Oc1ccc(-c2ccc(C(=O)NS(=O)(=O)c3cccc(N)n3)c(N3C(C)CC(C)C3C)n2)cn1` (stereo not drawn) [Compound 925, N-[(6-amino-2-pyridyl)sulfonyl]-6-(6-isopropoxy-3-pyridyl)-2-(2,3,5-trimethylpyrrolidin-1-yl)pyridine-3-carboxamide], the entry is “+++ (“+++” means <3 uM)”.
The same measure for `CC1CN(c2ncccc2C(=O)NS(=O)(=O)c2cccc(Nc3ccc(N(C)C)cc3)n2)C(C)(C)C1` (stereo not drawn) [Compound 1757, N—[[6-[4-(dimethylamino)anilino]-2-pyridyl]sulfonyl]-2-(2,2,4-trimethylpyrrolidin-1-yl)pyridine-3-carboxamide]: “+++ (“+++” means <3 uM)”; for `C[C@@H]1CN(c2nc(C3=COCC3)ccc2C(=O)NS(=O)(=O)c2cccc(N)n2)C(C)(C)C1` [Compound 1455, N-[(6-amino-2-pyridyl)sulfonyl]-6-(2,3-dihydrofuran-4-yl)-2-[(4S)-2,2,4-trimethylpyrrolidin-1-yl]pyridine-3-carboxamide]: “+++ (“+++” means <3 uM)”; for `CC1CN(c2ncccc2C(=O)NS(=O)(=O)c2cccc(N3CCC(c4ccccc4)C3)n2)C(C)(C)C1` (stereo not drawn) [Compound 1708, N—[[6-(3-phenylpyrrolidin-1-yl)-2-pyridyl]sulfonyl]-2-(2,2,4-trimethylpyrrolidin-1-yl)pyridine-3-carboxamide]: “+++ (“+++” means <3 uM)”.
As to `CC(C)COc1cc(F)cc(-c2ccc(C(=O)NS(=O)(=O)c3cccc(N)n3)c(N3CCCC(C)C3C)n2)c1` (stereo not drawn) [Compound 837, N-[(6-amino-2-pyridyl)sulfonyl]-2-(2,3-dimethyl-1-piperidyl)-6-(3-fluoro-5-isobutoxy-phenyl)pyridine-3-carboxamide], the EC30 entry is “+++ (“+++” means <3 uM)”.
